{"source": "patent US20020010113A1", "about": "“Composition” (Colgate-Palmolive Company, priority 1999, published 2002)", "key": {"[1]": {"test_system": "stratum corneum of pig skin", "settings": "stratum corneum immersed in 5% solution; weight at 90% relative humidity vs dry weight at 0% relative humidity", "from_the_text": "The epidermis of full thickness pig skin (Animal Technologies, Tyler, Tex.) was removed using a Packard Instruments dermatome, and the stratum corneum was removed via trypsin digestion. Pieces of stratum corneum were then immersed in millipore water, a 5% choline chloride (Aldrich Chemical, Milwaukee, Wis.), or a 5% glycerin solution. Using a dynamic vapour sorption meter (Surface Measurement Systems, Coopersburg, Pa.), the skin was equilibrated under a 0% relative humidity environment until the change in weight varied no more than 0.005% per min. This weight was recorded as the dry weight. The relative humidity was then increased to 90%. The skin was equilibrated at this humidity until the change in weight varied no more than 0.005% per min. This weight was, likewise, recorded and the % water uptake was calculated."}, "[2]": {"test_system": "Full thickness Yucatan swine skin", "settings": "(3H3C)-choline in 25% shower gel solution (100 mg choline chloride per 20 ml); two 5 minute applications, each rinsed with 10 ml distilled water", "procedure": "The radiolabelling experiment described in this example was carried out to quantify the amount of choline that could adhere to the skin following a water rinse. Full thickness Yucatan swine skin (Charles River, Inc., Wilmington, Mass.) was mounted (dermis side down) onto a special sample holder, the dimensions of which were previously described in U.S. Pat. No. 4,836,014. This sample holder exposed approximately 4.91 cm^2 of the skin. A 1 ml aliquot of (^3H3C)-choline (American Radiolabel Chemicals, Inc., St. Louis, Mo.) containing shower gel was next applied to the surface of the exposed skin. […] After five minutes had elapsed, the shower gel was removed, and the surface of the skin was rinsed with 10 ml of distilled water. A second 1 ml aliquot of the (^3H3C)-choline containing shower gel was then reapplied to the skin. Again, after a 5 minute exposure time, the shower gel was removed and the skin rinsed with 10 ml of distilled water. The skin sample was then removed from its sample holder and air-dried for 10 minutes. Four 4 mm diameter punches were collected from each piece of treated skin, oxidized in a Packard oxidizer, and counted in a Packard 2000 Tri-carb liquid scintillation analyzer (Packard Instruments Inc., Downers Grove, Ill.). To obtain the specific activity, 0.1 ml of the (^3H3C)-choline containing shower gel was counted in the Packard 2000 analyzer."}}, "data": [{"compound": "C[N+](C)(C)CCO.[Cl-]", "note": "[5% Choline, choline chloride]", "values": [{"measurement": "% Water Uptake", "setting": "[1]", "result": "89 ± 14", "unit": "%"}, {"measurement": "amount of choline remaining on the skin following a water rinse", "setting": "[2]", "result": 33, "unit": "μg/cm^2"}]}, {"compound": "OCC(O)CO", "note": "[5% Glycerin, glycerin, reference compound]", "values": [{"measurement": "% Water Uptake", "setting": "[1]", "result": "75 ± 6", "unit": "%"}]}]}
